Results as given in paper PMC10999543, “Identification of kinase modulators as host-directed therapeutics against intracellular methicillin-resistant Staphylococcus aureus” (Frontiers in Cellular and Infection Microbiology, 2024).
Where two headings read alike, the source gives them in different places.

Tests used:
[1] = test system: intracellular MRSA; assay type: cell-based, Staphylococcus aureus; details: for %GFP+ rep 1 / z-scoreMRSA+ rep 1: replicate 1; for %GFP+ rep 2 / z-scoreMRSA+ rep 2: replicate 2; for %GFP+ rep 3 / z-scoreMRSA+ rep 3: replicate 3; for z-scoreMRSA+ mean / z-scoreMRSA+ rep 1 / z-scoreMRSA+ rep 2 / z-scoreMRSA+ rep 3 / effect / hit: PKIS compound screen; for z-scoreMRSA+ mean: mean of 3 replicates; for hit: Yes/No call (effect without cell death)
Outline: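 HeLa cells infected with GFP-MRSA (MOI ~6.8), gentamicin-cleared, then incubated overnight at 37°C with inhibitors plus 5 µg/ml gentamicin; DMSO as negative control, triplicates. Flow cytometry gave % GFP-positive cells and cell count (viability surrogate); hits by plate z-score (MRSA ≤ -2, HeLa count ≥ -3).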

[2] = test system: HeLa cells; assay: Compound screen by flow cytometry: HeLa cell count as surrogate readout of cell viability (z-scoreHeLa); assay type: cell-based, human; details: for cell count rep 1 / z-scoreHeLa rep 1: replicate 1; for cell count rep 2 / z-scoreHeLa rep 2: replicate 2; for cell count rep 3 / z-scoreHeLa rep 3: replicate 3; for z-scoreHeLa mean / z-scoreHeLa rep 1 / z-scoreHeLa rep 2 / z-scoreHeLa rep 3 / cell death: PKIS compound screen; for z-scoreHeLa mean: mean of 3 replicates
Outline: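 HeLa cells were infected with GFP-MRSA (mean MOI 6.8 ± 4.6) for 1 h, and extracellular bacteria were killed with 30 µg/ml gentamicin. Cells were then incubated overnight with kinase inhibitors in 5 µg/ml gentamicin, in triplicate against DMSO controls. Flow-cytometric cell count served as a viability surrogate, expressed as a plate z-score.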

[3] = test system: intracellular MRSA in HeLa cells; assay: Gentamicin protection assay with CFU count in MRSA-infected HeLa cells; assay type: cell-based, Staphylococcus aureus; details: for reduction of intracellular bacterial burden (CFU): validation of 17 hit compounds, Figure 2A; for reduction in bacterial burden (CFU): HeLa cells, Figure 2B, n=17
Outline: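 Cells infected with MRSA (mean MOI 6.8 ± 4.6) for 1 hour at 37°C, extracellular bacteria killed with 30 µg/ml gentamicin for 15 min, then overnight with kinase inhibitor plus 5 µg/ml gentamicin; DMSO as negative control. Cells lysed in water with 0.05% SDS, lysates serially diluted and plated for CFU; triplicate per compound.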

[4] = test system: intracellular MRSA in MCF7 cells; assay: Gentamicin protection assay with CFU count in MRSA-infected MCF7 cells; assay type: cell-based, Staphylococcus aureus; details: 10 µM, n=7
Protocol: The cells were resuspended in cell culture medium without antibiotics, seeded with 10,000 cells/well into Costar flat-bottom 96-well plates (Corning, Amsterdam, the Netherlands), and were incubated overnight at 37°C/5% CO2. The next day, the bacteria were centrifuged at ≥1800 g for 15 min and resuspended in cold PBS + 5 mM ethylenediaminetetraacetic acid (EDTA). The number of CFUs present in the bacterial suspension was estimated from the optical density at 600 nm (OD600) by assuming 8x10^8 CFUs to be present in a bacterial suspension with OD600 = 1, based on prior titrations. The bacterial suspension was diluted in cell culture medium without antibiotics and added to the cells. Accuracy of the multiplicity of infection (MOI) was validated by plating serial dilutions of the MRSA inoculums on Difco TS agar plates (BD Biosciences). The calculated mean MOI throughout all experiments was 6.8 ± 4.6 (mean ± SD). Infected cells were centrifuged for 3 min at 150 g and incubated for 1 hour at 37°C/5% CO2. Next, the cells were incubated with fresh cell culture medium supplemented with 30 µg/ml gentamicin sulphate (Lonza BioWhittaker, Basel, Switzerland) for 15 min at 37°C/5% CO2 to kill residual extracellular bacteria. Infected cells were incubated overnight at 37°C/5% CO2 in cell culture medium in the presence of kinase inhibitors and 5 µg/ml gentamicin sulphate-containing medium to prevent the growth of extracellular bacteria. The solvent of the compounds, DMSO, was used at equal % v/v as a negative control. For the screen, each compound was tested in triplicate, on separate cell culture plates, resulting in triplicate values for each kinase inhibitor.
Infected cells were lysed in sterile water + 0.05% UltraPure SDS solution (Invitrogen, ThermoFisher Scientific) to release intracellular bacteria. Bacterial suspensions and lysates of cells infected with MRSA were 5-fold serially diluted and 10-μl drops were plated on square TS agar plates. The plates were left to dry and incubated overnight at 37°C/5% CO2.

[5] = test system: HeLa cells; assay type: cell-based, human; details: 30 µM, MRSA-infected HeLa cells
Protocol: Before harvesting or lysing the cells of the intracellular infection assays, the supernatant from the cells was collected to quantify LDH release by the cells using the LDH cytotoxicity detection kit (Roche, Merck, Darmstadt, Germany) according to the manufacturer’s instructions. Triton X-100 results in maximum LDH release by permeabilizing the cells and was used as positive control. Quantification was performed with the EnVision plate reader.

[6] = test system: MRSA; assay type: in vivo, zebrafish
Protocol: Zebrafish embryos were dechorionated at 24 hpf. The OD600 of a log-phase MRSA culture was centrifuged and dissolved in PBS with 2% polyvinylpyrrolidone (Merck) to improve homogeneity of the bacterial suspension. The OD600 was measured and the bacterial suspension was diluted to a final concentration of 10^9 CFUs/ml accordingly. The preparation of injection needles and the equipment used for microinjections have been previously described ([Benard et al., 2012]). At 28 hpf, zebrafish embryos were anesthetized in 200 µg/ml buffered ethyl 3-aminobenzoic acid (Tricaine, Sigma-Aldrich) and injected in the blood island with a bacterial dose of 1 nl containing 1000 CFUs of MRSA. Infected embryos were collected and randomly distributed over 6-wells plates with ten embryos/well. At 30 hpf, the infected embryos were given kinase inhibitors or DMSO as negative control. Survival of the embryos was scored at 48, 72, 96 and 120 hpf.

[7] = PKIS compound screen raw data, MRSA-infected HeLa cells
[8] = PKIS compounds raw data, MRSA-infected HeLa cells
[9] = PKIS compound screen raw data, HeLa cell count
[10] = PKIS compounds raw data, HeLa cell count

SMILES | effect ([1]; Yes/No call) | hit [1] | z-scoreMRSA+ mean [1] | z-scoreMRSA+ rep 1 [1] | z-scoreMRSA+ rep 2 [1] | z-scoreMRSA+ rep 3 [1] | %GFP+ rep 1 [1, 8] [%] | %GFP+ rep 2 [1, 8] [%] | %GFP+ rep 3 [1, 8] [%] | cell death ([2]; Yes/No call) | z-scoreHeLa mean [2] | z-scoreHeLa rep 1 [2] | z-scoreHeLa rep 2 [2] | z-scoreHeLa rep 3 [2] | cell count rep 1 [2, 10] | cell count rep 2 [2, 10] | cell count rep 3 [2, 10] | reduction of intracellular bacterial burden (CFU) ([3]; 10 µM) [%] | reduction in bacterial burden (CFU) ([3]; 10 µM) [%] | lowest concentration acting against intracellular MRSA (titration) ([3]; MRSA-infected HeLa cells) [nM] | also measured
CC(C)c1nc(-c2cccc(NS(=O)(=O)c3c(F)cccc3F)c2F)c(-c2ccnc(Nc3ccc(N4CCOCC4)nc3)n2)s1 [GSK2008607A] | No | No and Yes | -0.97 | -1.10 | -1.14 | -0.66 | 21.4 | 20.1 | 23.7 | No | -1.34 | -1.52 | -1.39 | -1.10 | 3519 | 3908 | 3860 | 56 | 72 | 10 | %GFP+ rep 1 [1, 7]: 8.4%; %GFP+ rep 2 [1, 7]: 9.2%; %GFP+ rep 3 [1, 7]: 10.2%; z-scoreMRSA+ mean ([1]; MRSA-infected HeLa cells): -2.86; z-scoreMRSA+ rep 1 ([1]; MRSA-infected HeLa cells): -2.77; z-scoreMRSA+ rep 2 ([1]; MRSA-infected HeLa cells): -2.79; z-scoreMRSA+ rep 3 ([1]; MRSA-infected HeLa cells): -3.01; effect ([1]; Yes/No call on z-scoreMRSA+): Yes; cell count rep 1 [2, 9]: 21178; cell count rep 2 [2, 9]: 14585; cell count rep 3 [2, 9]: 12213; z-scoreHeLa mean ([2]; HeLa cell count): -1.56; z-scoreHeLa rep 1 ([2]; HeLa cell count): -1.53; z-scoreHeLa rep 2 ([2]; HeLa cell count): -1.83; z-scoreHeLa rep 3 ([2]; HeLa cell count): -1.31; cell death ([2]; Yes/No call on z-scoreHeLa): No; reduction in bacterial burden (CFU) [4]: reductions in CFU counts; cytotoxicity / cell viability by LDH-release [5]: became cytotoxic; toxicity in MRSA-infected zebrafish embryos ([6]; 1 µM): severe compound-related toxicity
O=S(=O)(CCNCc1ccc(-c2ccc3ncnc(Nc4ccc(OCc5cccc(F)c5)c(Cl)c4)c3c2)o1)c1ccccc1 [GW633459A] | Yes | Yes | -2.34 | -2.22 | -2.06 | -2.75 | 6.2 | 7.3 | 6.6 | No | 0.80 | 0.28 | 0.72 | 1.40 | 5085 | 5223 | 9893 | 59 | 50 | 10 | CFU (% of DMSO) at 10 µM ([3]; 10 µM, MRSA-infected HeLa cells): 41.2 % of DMSO; reduction in bacterial burden (CFU) [4]: reductions in CFU counts; cytotoxicity / cell viability by LDH-release [5]: only marginally affected; survival rate of MRSA-infected zebrafish embryos ([6]; 10 µM, after 4 days, 1000 CFUs MRSA, DMSO 57.5%, uninfected 93.8%): 67.5%
